Common to all, as to type: cell-based
The target of assay [1] is T1, KOR (Homo sapiens, UniProt P41145). The assay is described as follows: KOR1 DISCOVERX β-Arrestin […] assay, antagonist mode (KOR DRX). The text has this: (§1) In this campaign, two assay platforms were employed to evaluate KOR activity and selectivity: the KOR1 DISCOVERX β-Arrestin […] assay and an imaging based β-arrestin translocation assay for confirmatory and selectivity assays. The KOR1 DISCOVERX β-Arrestin […] assay is a commercial platform for direct measurement of GPCR (G protein-coupled receptor) activation by detection of β-Arrestin binding to the KOR. […] In cells that stably express these fusion proteins, ligand stimulation results in the recruitment of β-Arrestin by the GPCR. This interaction encourages the complementation of the two β-galactosidase fragments resulting in the formation of a functional enzyme that converts substrate in the assay medium to a detectable signal. The imaging based high-content β-arrestin translocation assay is based upon the redistribution of β-Arrestin linked to green fluorescent protein (GFP) to the cell surface and detection (Barak, et al. (1997) J. Biol. Chem. 272:27497-27500).
(§2) Initially, a portion (approximately 290,000 compounds) of the MLSMR compound collection was tested in the KOR1 DISCOVERX β-arrestin primary kappa opioid (KOP) agonist and antagonist screens (PUBCHEM AID 1777 and 1778, respectively) at a single concentration point (10 μM). […] These compounds were concurrently tested in a β-galactosidase counterscreen assay (PUBCHEM AID 1966) to assess the possibility that these compounds might inhibit the reporting enzyme. […] The KOR:DOR:MOR selectivity of the compounds was determined using the analogous β-arrestin translocation assays for the DOR (PUBCHEM AID 2370 and 2357, for agonists and antagonist, respectively) and the MOR (PUBCHEM AID 2352 and 2420, for agonists and antagonists, respectively).

For assay [2], the target named is T1, KOR. Nature of the assay: High content imaging β-arrestin translocation assay, KOR antagonist (KOR HCS).
Text: as §1, §2

Assay [3] concerns the target T2, MOR (Homo sapiens, UniProt P35372). Nature of the assay: High content imaging β-arrestin translocation assay, MOR antagonist (MOR HCS). To be noted: antagonist; average; read-out: Potency, Antitarget MOR HCS.
Text: as §1, §2

Assay [4] deals with DOR (Homo sapiens, UniProt P41143). Nature of the assay: High content imaging β-arrestin translocation assay, DOR antagonist (DOR HCS). The conditions noted are these: antagonist; average; read-out: Potency, Antitarget DOR HCS.
Text: as §1, §2

The target in assay [5] is T1, KOR. Nature of the assay: DISCOVERX β-arrestin […] assay, agonist mode (KOR DRx). To be noted: for EC50: agonist, n = 3, read-out: Average Potency KOR DRx; for Emax (%): at highest concentration tested, compared to dynorphin A (Emax=100%).
Text: as §1, with “signal.” for “signal. The imaging based high-content β-arrestin translocation assay is based upon the redistribution of β-Arrestin linked to green fluorescent protein (GFP) to the cell surface and detection (Barak, et al. (1997) J. Biol. Chem. 272:27497-27500).”

For assay [6], the target named is T1, KOR. Nature of the assay: High content imaging based β-arrestin translocation assay, KOR agonist (KOR HCS). To be noted: n = 2, read-out: Average Potency KOR HCS.
Text: as §1, §2

Assay [7] concerns the target T2, MOR. Nature of the assay: High content imaging based β-arrestin translocation assay, MOR agonist (MOR HCS). To be noted: n = 2, read-out: Average Potency MOR HCS.
Text: as §1, §2

[8] abbreviates: antagonist, average, read-out: Potency, Target KOR DRX.
Where [9] appears, read: antagonist, average, read-out: Potency, Target KOR HCS.

A value given as a limit tells only on which side of the number the result lay.

Sequence of DOR (P41143 whole entry): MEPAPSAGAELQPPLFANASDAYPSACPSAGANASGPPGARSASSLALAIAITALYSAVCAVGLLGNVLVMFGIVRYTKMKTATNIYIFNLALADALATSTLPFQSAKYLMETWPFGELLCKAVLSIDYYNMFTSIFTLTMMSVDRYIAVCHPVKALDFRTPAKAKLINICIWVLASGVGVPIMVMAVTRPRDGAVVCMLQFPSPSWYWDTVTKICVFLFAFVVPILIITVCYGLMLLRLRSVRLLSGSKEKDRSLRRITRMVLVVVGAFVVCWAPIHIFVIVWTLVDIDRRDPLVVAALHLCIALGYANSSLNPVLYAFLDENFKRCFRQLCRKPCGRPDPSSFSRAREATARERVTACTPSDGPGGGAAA
T1 sequence (P41145 whole entry, the tested form may be a part): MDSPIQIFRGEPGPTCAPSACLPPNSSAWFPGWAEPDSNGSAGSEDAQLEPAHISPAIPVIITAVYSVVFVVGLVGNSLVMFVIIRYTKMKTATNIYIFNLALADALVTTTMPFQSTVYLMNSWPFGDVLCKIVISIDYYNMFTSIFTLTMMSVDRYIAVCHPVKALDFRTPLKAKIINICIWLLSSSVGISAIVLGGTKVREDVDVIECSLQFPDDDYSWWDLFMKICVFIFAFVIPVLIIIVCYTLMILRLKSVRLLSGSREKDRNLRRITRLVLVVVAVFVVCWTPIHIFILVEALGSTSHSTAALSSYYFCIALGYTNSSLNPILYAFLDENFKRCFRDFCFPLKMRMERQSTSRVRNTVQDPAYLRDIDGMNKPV
T2 sequence (P35372 whole entry): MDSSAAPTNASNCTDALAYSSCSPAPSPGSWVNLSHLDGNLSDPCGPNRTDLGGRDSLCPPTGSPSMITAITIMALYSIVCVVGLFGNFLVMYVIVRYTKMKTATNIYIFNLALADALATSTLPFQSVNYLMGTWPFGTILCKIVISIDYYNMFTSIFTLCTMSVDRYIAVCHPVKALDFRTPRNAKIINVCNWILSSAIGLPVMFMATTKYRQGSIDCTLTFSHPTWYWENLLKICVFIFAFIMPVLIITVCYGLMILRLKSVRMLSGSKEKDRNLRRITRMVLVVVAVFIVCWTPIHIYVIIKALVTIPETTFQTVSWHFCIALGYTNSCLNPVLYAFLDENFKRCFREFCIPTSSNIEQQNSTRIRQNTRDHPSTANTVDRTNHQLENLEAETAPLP

Consider `COc1ccc(N2CCN(CCCNC(=O)Cn3c(=O)c4cccn4c4ccccc43)CC2)cc1` [1{2}], for which the IC50 in assay [1] (setting [8]) is 4.32 µM; in assay [2] (setting [9]), 15.3 µM; in assay [3], over 32 µM; in assay [4] it was over 32 µM.
On to `COc1ccc(N2CCN(CCCNC(=O)Cn3c(=O)c4cccn4c4c(C)ccnc43)CC2)c(OC)c1` [1{4}], for which the IC50 in assay [1] (setting [8]) was 0.19 µM; in assay [2] (setting [9]), 0.004 µM; in assay [3], 30.9 µM; in assay [4], over 32 µM.
Taken in the same sequence, the figures for `Cc1ccnc2c1n1cccc1c(=O)n2CC(=O)NCCCN1CCN(c2ccc3c(c2)OCO3)CC1` [1{5}] were 0.43 µM, 0.045 µM, 17.2 µM and over 32 µM.
In the same order, the values of `Cc1ccc(N2CCN(CCCNC(=O)Cn3c(=O)c4cccn4c4c(C)ccnc43)CC2)cc1` [1{7}] are 0.88 µM, 2.28 µM, over 32 µM and over 32 µM.
Taken in the same sequence, the figures for `Cc1ccnc2c1n1cccc1c(=O)n2CC(=O)NCCCN1CCN(c2ccccc2)CC1` [1{8}] were 4.95 µM, 2.56 µM, 22.5 µM and over 32 µM.
Regarding `COc1ccc(N2CCN(CCCNC(=O)Cn3c(=O)c4cccn4c4cccnc43)CC2)c(OC)c1` [1{9}], the IC50 is 2.65 µM in assay [1] (setting [8]), 0.49 µM in assay [2] (setting [9]), 10.8 µM in assay [3] and over 32 µM in assay [4].
With `Cc1ccc(N2CCN(CCCNC(=O)Cn3c(=O)c4cccn4c4cccnc43)CC2)cc1` [1{12}], the IC50 in assay [1] (setting [8]) is 3.68 µM; in assay [2] (setting [9]) it was 0.89 µM; in assay [3] it was 18.8 µM; in assay [4] it was over 32 µM.
In the case of `COc1ccc(N2CCN(CCCNC(=O)Cn3c(=O)c4cccn4c4cc(Br)cnc43)CC2)cc1` [1{14}], the IC50 in assay [1] (setting [8]) was 3.05 µM; in assay [2] (setting [9]), 0.69 µM; in assay [3], 10.3 µM; in assay [4], over 32 µM.
Taken in the same sequence, the figures for `COc1ccc(N2CCN(CCCNC(=O)Cn3c(=O)c4cccn4c4cc(Br)cnc43)CC2)c(OC)c1` [1{16}] were 2.82 µM, 3.02 µM, 10.2 µM and over 32 µM.
Turning to `Cc1ccc(Cl)cc1N1CCN(CCCNC(=O)Cn2c(=O)c3cccn3c3cccnc32)CC1` [1{24}], the IC50 is over 20 µM in assay [1] (setting [8]), over 32 µM in assay [2] (setting [9]), 3.98 µM in assay [3] and over 32 µM in assay [4].
Take `Cc1cccc(N2CCN(CCNC(=O)Cn3c(=O)c4cccn4c4cccnc43)CC2)c1C` [1{25}]: the IC50 was over 20 µM in assay [1], over 32 µM in assay [2] and over 32 µM in assay [4].
With `COc1ccc(N2CCN(CCNC(=O)Cn3c(=O)c4cccn4c4c(C)ccnc43)CC2)cc1` [1{26}], the IC50 in assay [2], in assay [3] and in assay [4] was over 32 µM throughout.
For `COc1ccc(N2CCN(CCCCNC(=O)Cn3c(=O)c4cccn4c4c(C)ccnc43)CC2)cc1` [1{27}], the IC50 was 1.25 µM in assay [1] (setting [8]), 0.005 µM in assay [2] (setting [9]), over 32 µM in assay [3] and over 32 µM in assay [4].
`Cc1ccnc2c1n1cccc1c(=O)n2CC(=O)NCCCN1CCN(c2ccc(Cl)cc2)CC1` [Compound 1{6}]: the IC50 in assay [1] (setting [8]) was 0.69 µM; in assay [2] (setting [9]) it was 0.07 µM; in assay [3], over 32 µM; in assay [4], over 32 µM.
For the compound `O=C(Cn1c(=O)c2cccn2c2cccnc21)NCCCN1CCN(c2ccc3c(c2)OCO3)CC1` [Compound 1{10}], the IC50 in assay [1] (setting [8]) is 4.23 µM; in assay [2] (setting [9]), 0.78 µM; in assay [3], over 32 µM; in assay [4], over 32 µM.
As to `O=C(Cn1c(=O)c2cccn2c2cccnc21)NCCCN1CCN(c2ccc(Cl)cc2)CC1` [Compound 1{11}], the IC50 was 5.18 µM in assay [1] (setting [8]), 0.096 µM in assay [2] (setting [9]), over 32 µM in assay [3] and over 32 µM in assay [4].
Consider `O=C(Cn1c(=O)c2cccn2c2cccnc21)NCCCN1CCN(c2ccccc2)CC1` [Compound 1{13}], for which the IC50 in assay [1] (setting [8]) was over 20 µM; in assay [2] (setting [9]) it was 12.7 µM; in assay [3], over 32 µM; in assay [4] it was over 32 µM.
Take `O=C(Cn1c(=O)c2cccn2c2cc(Br)cnc21)NCCCN1CCN(c2ccc(Cl)cc2)CC1` [Compound 1{15}]: the IC50 in assay [1] (setting [8]) was over 20 µM; in assay [2] (setting [9]) it was over 32 µM; in assay [3], 5.32 µM; in assay [4] it was over 32 µM.
Consider `O=C(Cn1c(=O)c2cccn2c2cc(Br)cnc21)NCCCN1CCN(c2ccc3c(c2)OCO3)CC1` [Compound 1{17}], for which the IC50 in assay [1] (setting [8]) was 3.11 µM; in assay [2] (setting [9]) it was 0.15 µM; in assay [3], over 32 µM; in assay [4] it was over 32 µM.
Consider `O=C(Cn1c(=O)c2cccn2c2cccnc21)NCCCN1CCOCC1` [Compound 1{19}], for which the IC50 was over 20 µM in assay [1] (setting [8]), over 32 µM in assay [2] (setting [9]), over 32 µM in assay [3] and over 32 µM in assay [4].
Consider `CN1CCN(CCCNC(=O)Cn2c(=O)c3cccn3c3cccnc32)CC1` [Compound 1{20}], for which the IC50 is over 20 µM in assay [1] (setting [8]), over 32 µM in assay [2] (setting [9]), over 32 µM in assay [3] and over 32 µM in assay [4].
For `O=C(Cn1c(=O)c2cccn2c2cccnc21)NCCCN1CCCCC1` [Compound 1{21}], the IC50 in assay [1] (setting [8]) is over 20 µM; in assay [2] (setting [9]), over 32 µM; in assay [3], over 32 µM; in assay [4], over 32 µM.
Regarding `O=C(Cn1c(=O)c2cccn2c2cccnc21)NCCCN1CCC(Cc2ccccc2)CC1` [Compound 1{22}], the IC50 in assay [1] (setting [8]) is 4.78 µM; in assay [3], over 32 µM; in assay [4], over 32 µM.
Consider `COc1cccc(CSc2nnc(-c3ccccn3)n2Cc2cccs2)c1` [Compound 2{38}], for which the figures for the EC50 in assay [5], in assay [6] and in assay [7] were 8.72 µM, 12.2 µM and over 32 µM, respectively. Moreover, the “Emax (%)” value in assay [5] was about 100%.
Regarding `Cc1c(CSc2nnc(-c3ccccn3)n2Cc2ccco2)cccc1[N+](=O)[O-]` [Compound 2{39}], the figures for the EC50 in assay [5], in assay [6] and in assay [7] were 8.21 µM, 12 µM and over 32 µM, respectively. In addition, the “Emax (%)” value in assay [5] is recorded as about 128%.
In the same order, the values of `Cc1c(CSc2nnc(-c3ccccn3)n2Cc2cccs2)cccc1[N+](=O)[O-]` [Compound 2{40}] are 5.81 µM, 4.2 µM, over 32 µM and about 105%.
In the same order, the values of `Fc1ccc(CSc2nnc(-c3ccccn3)n2Cc2ccco2)c(F)c1F` [Compound 2{43}] are 7 µM, 5.3 µM, over 32 µM and about 140%.
Taken in the same sequence, the figures for `Fc1ccc(CSc2nnc(-c3ccccn3)n2Cc2cccs2)c(F)c1F` [Compound 2{44}] were 3.04 µM, 1.7 µM, over 32 µM and about 115%.
As for `Fc1ccc(CSc2nnc(-c3ccccn3)n2Cc2ccco2)c(C(F)(F)F)c1` [Compound 2{45}], the EC50 in assay [5] was 8.27 µM; in assay [6], 5.4 µM; in assay [7] it was over 32 µM. Besides, the “Emax (%)” value in assay [5] is about 138%.
Taken in the same sequence, the figures for `Fc1ccc(CSc2nnc(-c3ccccn3)n2Cc2cccs2)c(C(F)(F)F)c1` [Compound 2{46}] were 4.46 µM, 2.25 µM, over 32 µM and about 109%.
In the same order, the values of `Clc1ccccc1CSc1nnc(-c2ccccn2)n1Cc1cccs1` [Compound 2{48}] are 10.2 µM, 4.1 µM, over 32 µM and about 100%.

(Values after US9345703B2, “Kappa opioid receptor effectors and uses thereof” (University of Kansas, priority 2011, dated 2016).)
